# Publication PMC10574351, “First-Row Transition Metal Complexes Incorporating the 2-(2′-pyridyl)quinoxaline Ligand (pqx), as Potent Inflammatory Mediators: Cytotoxic Properties and Biological Activities against the Platelet-Activating Factor (PAF) and Thrombin” (Molecules, 2023)
# What was measured:
# [1] = Stability in DMSO monitored by UV-Vis spectroscopy; format: physicochemical; conditions: ambient temperature, monitored ~1 to 2 h
# Protocol: The UV-Vis spectra of all complexes were recorded in DMSO at ambient temperature, immediately after dissolution, as this is the medium used for the biological assays. The UV-Vis spectrum of 1 will be included in a publication that follows. The relevant spectra of complexes 2, 3, 5 and 6 are shown below in Figure 6 and Figure 7, respectively, while that of complex 7 (concentrated solution) is included in Figure S9.
# The UV-Vis absorption spectra of the light-yellow solutions of complexes 2, 3, 5 and 6 were monitored over a period of ~1 to 2 h (not shown) to ensure stability for the relevant biological assays. […] The electronic spectra of all complexes display four rather identical absorption bands in the range of 259–334 nm that can be attributed to π → π* and n → π* or charge-transfer transitions. These bands display medium to weak molar extinction coefficients and are in the expected region for similar complexes. For the cobalt(II) complex 2, the very low intensity and rather broad absorption, centered at ~680 nm can be attributed to d-d transitions. Also for the copper(II) complex 3, the broad absorption band in the range of 660–870 nm, is attributed to d-d transition.
# [2] = system: human lymphocytes cultures; experiment: Toxicity in healthy cells (human lymphocytes cultures); format: cell-based
# [3] = system: lyso-PAF:acetyl-CoA acetyltransferase (lyso-PAF-AT); experiment: Lyso PAF-AT activity assay on leukocyte homogenate; format: biochemical; conditions: rabbit leukocyte homogenate; Figure 9
# Protocol: The experiment on the inhibitory effect of each compound of interest against the washed rabbit platelets (WRPs) aggregation was carried out as per the already described method. The platelets were from male New Zealand white rabbits (about 20), individually housed in stainless steel cages in an air-conditioned room (19 ± 1 °C, 55 ± 5% humidity on a 12/12 h artificial light/dark cycle). Blood samples were drawn from the main ear artery. Microliters of PAF in a final concentration of about 10^–10 M were added to the cuvette of the aggregometer, and the height of the platelet aggregation was monitored. […] Dithiothreitol-insensitive PAF choline phosphotransferase, lyso-PAF:acetyl-CoA acetyltransferase and PAF-acetylhydrolase activity assays were performed on the homogenates of rabbit leukocytes while the activity of lipoprotein-associated phospholipase A2 was assessed on plasma as previously described. […] All results were expressed as mean ± standard deviation (SD). […] Data were analyzed using a statistical software package (SPSS for Windows, 16.0, 2007, SPSS Inc., Chicago, IL, USA) and Microsoft Excel 2007. […]
# The extraction, purification, and determination of the produced in each assay PAF was carried out as previously described. […] PAF bands were scrapped off, and extracted and the amount of PAF was determined by the washed rabbit platelet aggregation assay. […]
# [4] = target: T1, Lipoprotein-associated phospholipase A2 (Lp-PLA2) (Oryctolagus cuniculus, UniProt G1SE06); experiment: Plasma PAF-AH (LpPLA2) activity assay; format: biochemical, rabbit; conditions: in increased concentrations, Figure 10
# T1 construct: from tissue; host or cells: rabbit plasma
# T1 sequence (G1SE06 22-423): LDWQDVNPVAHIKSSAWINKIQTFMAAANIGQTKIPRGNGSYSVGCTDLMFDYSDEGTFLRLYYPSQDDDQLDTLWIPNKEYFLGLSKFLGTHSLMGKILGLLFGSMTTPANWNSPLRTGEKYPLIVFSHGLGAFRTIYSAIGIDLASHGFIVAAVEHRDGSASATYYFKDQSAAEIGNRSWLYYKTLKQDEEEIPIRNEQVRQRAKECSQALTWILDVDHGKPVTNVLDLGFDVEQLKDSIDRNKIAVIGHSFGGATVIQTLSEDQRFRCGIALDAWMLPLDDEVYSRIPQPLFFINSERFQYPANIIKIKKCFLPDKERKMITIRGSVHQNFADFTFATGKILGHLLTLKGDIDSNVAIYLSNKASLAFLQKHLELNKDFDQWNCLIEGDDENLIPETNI
# Protocol: The experiment on the inhibitory effect of each compound of interest against the washed rabbit platelets (WRPs) aggregation was carried out as per the already described method. The platelets were from male New Zealand white rabbits (about 20), individually housed in stainless steel cages in an air-conditioned room (19 ± 1 °C, 55 ± 5% humidity on a 12/12 h artificial light/dark cycle). Blood samples were drawn from the main ear artery. Microliters of PAF in a final concentration of about 10^–10 M were added to the cuvette of the aggregometer, and the height of the platelet aggregation was monitored. […] Dithiothreitol-insensitive PAF choline phosphotransferase, lyso-PAF:acetyl-CoA acetyltransferase and PAF-acetylhydrolase activity assays were performed on the homogenates of rabbit leukocytes while the activity of lipoprotein-associated phospholipase A2 was assessed on plasma as previously described. […] All results were expressed as mean ± standard deviation (SD). […] Data were analyzed using a statistical software package (SPSS for Windows, 16.0, 2007, SPSS Inc., Chicago, IL, USA) and Microsoft Excel 2007.
# Plasma PAF-AH was determined in rabbit plasma by the trichloroacetic acid precipitation method using [3H] […] The [3H]-acetate released into the aqueous phase was measured on a liquid scintillation counter. […]
compound,measurement,setting,value
"CS(C)=O.[Cl][Cu][Cl].c1ccc(-c2cnc3ccccc3n2)nc1 [Complex 3, [Cu(pqx)Cl2(DMSO)]]",stability of UV-Vis absorption spectra in DMSO,[1],not modified over time
"[Cl][Zn][Cl].c1ccc(-c2cnc3ccccc3n2)nc1 [Complex 4, [Zn(pqx)Cl2]]",toxicity in healthy cells,[2],almost inactive (non-toxic)
[Co(pqx)Cl2(DMF)] [Complex 2],stability of UV-Vis absorption spectra in DMSO,[1],not modified over time
[Fe(pqx)Cl2]2 [Complex 6],stability of UV-Vis absorption spectra in DMSO,[1],not modified over time
[Mn(pqx)(H2O)2Cl2]2 [Complex 5],stability of UV-Vis absorption spectra in DMSO,[1],not modified over time
[Ni(pqx)Cl2]2 [Complex 7],inhibition of the specific activity of lyso-PAF-AT,[3],inhibit in a dose-dependent way
same,inhibition of the specific activity of Lp-PLA2,[4],disables the enzymatic activity
mer-[Cr(pqx)Cl3(H2O)] [Complex 1],toxicity in healthy cells,[2],almost inactive (non-toxic)
same,inhibition of the specific activity of lyso-PAF-AT,[3],inhibit in a dose-dependent way
